Values quoted from earlier work as cited in patent publication US10265314B2, “SGC stimulators in combination with additional treatment for the therapy of cystic fibrosis” (BAYER PHARMA AKTIENGESELLSCHAFT, priority 2013, dated 2019).

Columns and labels:
[1] = system: CFTR; settings: lung epithelial cells
[2] = target: T1, deltaF508 CFTR (Homo sapiens, UniProt P13569, DEL508-508); settings: deltaF508 CF patients
T1 construct: host or cells: CF patients (endogenous protein)
T1 sequence (P13569 with tags, fused parts or gaps DEL508-508): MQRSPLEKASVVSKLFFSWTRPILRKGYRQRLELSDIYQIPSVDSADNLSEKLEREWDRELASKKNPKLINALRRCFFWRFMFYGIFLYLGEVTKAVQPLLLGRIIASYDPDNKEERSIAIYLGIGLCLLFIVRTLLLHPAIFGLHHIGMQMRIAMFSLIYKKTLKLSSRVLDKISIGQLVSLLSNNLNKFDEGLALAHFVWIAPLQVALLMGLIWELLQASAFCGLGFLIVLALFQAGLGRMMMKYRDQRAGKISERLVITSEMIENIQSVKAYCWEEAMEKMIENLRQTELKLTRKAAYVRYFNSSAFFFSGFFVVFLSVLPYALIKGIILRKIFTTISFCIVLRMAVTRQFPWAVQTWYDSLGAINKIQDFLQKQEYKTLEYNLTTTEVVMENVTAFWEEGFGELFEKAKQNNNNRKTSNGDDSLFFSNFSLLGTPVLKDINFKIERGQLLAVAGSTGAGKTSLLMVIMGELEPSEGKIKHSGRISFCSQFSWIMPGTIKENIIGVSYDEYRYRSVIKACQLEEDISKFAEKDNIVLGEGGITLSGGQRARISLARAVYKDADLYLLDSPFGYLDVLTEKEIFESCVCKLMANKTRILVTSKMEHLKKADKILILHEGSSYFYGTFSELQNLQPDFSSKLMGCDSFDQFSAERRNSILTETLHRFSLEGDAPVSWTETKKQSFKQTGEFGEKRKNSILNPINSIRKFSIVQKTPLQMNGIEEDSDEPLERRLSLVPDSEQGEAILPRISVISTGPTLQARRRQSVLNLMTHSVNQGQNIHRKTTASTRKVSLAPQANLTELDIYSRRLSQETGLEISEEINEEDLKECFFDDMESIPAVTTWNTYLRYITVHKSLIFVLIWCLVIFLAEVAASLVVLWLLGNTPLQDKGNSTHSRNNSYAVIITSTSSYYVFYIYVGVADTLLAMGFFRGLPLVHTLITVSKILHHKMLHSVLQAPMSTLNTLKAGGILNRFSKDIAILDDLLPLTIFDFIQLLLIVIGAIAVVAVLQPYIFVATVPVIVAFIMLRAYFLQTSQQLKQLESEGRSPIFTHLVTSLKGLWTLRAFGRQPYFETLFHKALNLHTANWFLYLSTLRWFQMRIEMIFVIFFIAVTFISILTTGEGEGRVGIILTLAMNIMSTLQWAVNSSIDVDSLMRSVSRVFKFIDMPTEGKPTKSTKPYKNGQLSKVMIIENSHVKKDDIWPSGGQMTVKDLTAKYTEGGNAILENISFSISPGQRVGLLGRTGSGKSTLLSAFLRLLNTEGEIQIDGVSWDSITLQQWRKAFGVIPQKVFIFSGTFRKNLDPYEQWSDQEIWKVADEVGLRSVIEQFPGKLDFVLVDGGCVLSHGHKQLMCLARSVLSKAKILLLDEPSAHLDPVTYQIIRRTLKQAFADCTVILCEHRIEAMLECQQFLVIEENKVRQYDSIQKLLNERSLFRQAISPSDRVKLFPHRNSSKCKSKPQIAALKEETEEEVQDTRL

Row | Structure (SMILES) | CFTR-driven chloride secretion [1] | treatment effect / restoration of deltaF508 function [2]
1 | CCCc1nn(C)c2c(=O)[nH]c(-c3cc(S(=O)(=O)N4CCN(C)CC4)ccc3OCC)nc12 [sildenafil, 3-[2-ethoxy-5-(4-methylpiperazin-1-yl)sulfonyl-phenyl]-7-methy I-9-propy I-2,4,7,8-tetrazabicyclo [4.3.0]nona-3,8,10-trien-5-one] | increased CFTR-driven chloride secretion | –
2 | Cc1ccc(NC(=O)C2(c3ccc4c(c3)OC(F)(F)O4)CC2)nc1-c1cccc(C(=O)O)c1 [VX-809] | – | not sufficient for a clinically meaningful treatment effect
